Source: publication PMC10700673, “A Smart Intracellular Self‐Assembling Bioorthogonal Raman Active Nanoprobe for Targeted Tumor Imaging” (Advanced Science, 2023)

Assay: self-assembly into nanoparticles, TEM and DLS
Assay type: physicochemical
Conditions: probe solution without legumain enzyme
Protocol: To accurately evaluate the efficiency of the R6‐AAN‐alkyne‐nitrile nanoprobe, time‐dependent Raman measurements were performed (Figure 2g), where the ratio of alkyne/nitrile peak intensity was used as an indicator of the reaction progress. We found as the reaction progressed the alkyne/nitrile peak intensity increased from 0.22±0.01 to 4.4±0.12 and plateaued at a final value of 4.6±0.12 indicating almost complete conversion of nanoSABER to alkyne‐dimer within 3 h. […] To further get insight into the structural arrangements of the self‐assembled dimers, transmission electron microscopy (TEM) was performed. […]
All materials were sourced from Sigma, Chem Impex, or Thermo Fisher and used as received, with purification performed only when explicitly indicated. […] The mass of synthesized peptides was determined using Bruker AutoFLex III Maldi‐TOF or Voyager DE‐STR MALDI‐TOF mass spectrometers. ^1H NMR spectra were obtained on a 400 MHz Bruker Avance at 27 °C in dimethylsulfoxide (DMSO)‐d6. Ultraviolet–visible (UV–Vis) absorption spectra were recorded with a Perkin Elmer Lambda 950 UV–Vis spectrophotometer. […] High‐resolution fluorescence imaging was performed using a Leica SP8 confocal microscope equipped with a 63× oil‐immersion objective. The size distribution of nanoparticles was determined using dynamic light scattering (DLS) (Zetasizer Nano, Malvern Instruments) at room temperature (RT). […]

In the case of “Ac‐Arg‐Arg‐Arg‐Arg‐Arg‐Arg‐Ala‐Ala‐Asn‐Cys(StBu)‐Pra‐Lys‐CBT [nanoSABER]”, the “nanoparticles in TEM before addition of legumain” value is reported as “did not show any detectable nanoparticles”.
